In PubChem BioAssay (NCI) one finds TGI data, which are given here for five molecules.

The structures appear in SMILES notation.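 96-well plates; 48 h exposure; 5 concentrations. Endpoints by linear interpolation between flanking doses. Not reached: highest tested concentration assigned. TGI: total growth inhibition.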

What all share (experiment): NCI-60 cell line screen, 48 h
For assay [1], the system named is M19-MEL melanoma.
In assay [2] the test system is LXFL 529 NSCLC.
Assay [3] has as its system KM20L2 colon.
Assay [4] concerns HOP-18 NSCLC.
In assay [5] the test system is DMS 114 small cell lung.
Assay [6] concerns DLD-1 colon.
The subject of assay [7] is SNB-78 CNS.
Assay [8] concerns RXF-631 renal.
The test system of assay [9] is XF 498 CNS.

Take `N#CN=C(N)NC(=O)/C=C/C=C/c1ccc(Cl)cc1`: the TGI in assay [1], in [2], in assay [3], in assay [4], in assay [5] and in assay [6] was greater than 100 µM throughout. In assay [7], this molecule returned a TGI greater than 100 µM.

With `CC(=O)OC(C)C1C2=C(C(=O)CC1(C)O)C(=O)c1c(ccc(-c3ccc4c(c3O)C(=O)C3=C(C4=O)C(C(C)OC(C)=O)C(C)(O)CC3=O)c1O)C2=O` (centres undefined), the TGI in assay [1] came to 2.7 µM; in [2], 1.51 µM; in assay [3], 4.59 µM; in [4], 1.74 µM; in [5], 1.24 µM; in assay [6], 2.43 µM. Further, the TGI in [7] came to 9.63 µM.

`CC(C)(C)N1C(C(=O)c2ccccc2)C1c1ccccc1` (centres undefined): the TGI in assay [1], in assay [2], in assay [6], in assay [8] and in assay [7] was greater than 100 µM throughout.

For `C#CCOc1c(C(=O)OCC)c(=O)n(C)c2ccccc12`, the TGI in assay [1], in assay [2], in [9], in [3], in assay [4] and in assay [5] was greater than 100 µM throughout. The TGI in assay [6], in assay [8] and in assay [7] was greater than 100 µM each time.

For the molecule `CCOC(=O)C12CCC(=O)C=C1[C@@H](C)C(=O)CC2` (some centres undefined), the TGI in assay [1], in [2], in assay [9], in assay [3], in assay [5] and in [6] was greater than 100 µM throughout.
